Measurements from patent US20210267984A1, “APPLICATION OF ALLOPURINOL IN PREPARATION OF DRUG FOR TREATING CANCER WITH HIGH EXPRESSION OF PAICS GENE” (priority 2018, published 2021).

Experiments:
[1] = tested on: cancers with non-abnormally high expression of the PAICS gene; assay: Therapeutic effect, cancers with non-abnormally high PAICS expression; conditions: cancers with non-abnormally high PAICS expression such as renal cancer, skin cutaneous melanoma, pheochromocytoma and paraganglioma
Description: (§1) This property of allopurinol is different from those of most chemotherapeutic drugs.

Bel-7402 = conditions: data of CN102746306A; cited from earlier work
[2] = tested on: Uterine Corpus Endometrial Carcinoma; assay: Anti-cancer effect of allopurinol (cell biology screening combined with animal experiments); conditions: UCEC; PAICS abnormally high expression
Description: as §1

Prostate adenocarcinoma = assay: as above; conditions: PRAD; PAICS abnormally high expression
Description: as §1

Lung adenocarcinoma = assay: as above; conditions: LUAD; PAICS abnormally high expression
Description: as §1

Stomach adenocarcinoma = assay: as above; conditions: STAD; PAICS abnormally high expression
Description: as §1

[3] = tested on: Breast invasive carcinoma; assay: as above; conditions: BRCA; PAICS abnormally high expression
Description: as §1

[4] = tested on: Bladder Urothelial Carcinoma; assay: as above; conditions: BLCA; PAICS abnormally high expression
Description: as §1

Glioblastoma multiforme = assay: as above; conditions: GBM; PAICS abnormally high expression
Description: as §1

[5] = tested on: Lung squamous cell carcinoma; assay: as above; conditions: LUSC; PAICS abnormally high expression
Description: as §1

Cholangiocarcinoma = assay: as above; conditions: CHOL; PAICS abnormally high expression
Description: as §1

Rectum adenocarcinoma = assay: as above; conditions: READ; PAICS abnormally high expression
Description: as §1

[6] = tested on: Pancreatic adenocarcinoma; assay: as above; conditions: PAAD; PAICS abnormally high expression
Description: as §1

[7] = tested on: Head and Neck squamous cell carcinoma; assay: as above; conditions: HNSC; PAICS abnormally high expression
Description: as §1

Esophageal carcinoma = assay: as above; conditions: ESCA; PAICS abnormally high expression
Description: as §1

[8] = tested on: Cervical squamous cell carcinoma and endocervical adenocarcinoma; assay: as above; conditions: CESC; PAICS abnormally high expression
Description: as §1

[9] = tested on: Liver hepatocellular carcinoma; assay: as above; conditions: LIHC; PAICS abnormally high expression
Description: as §1

Colon adenocarcinoma = assay: as above; conditions: COAD; PAICS abnormally high expression
Description: as §1

SMMC-7221 = conditions: data of CN102746306A; cited from earlier work
[10] = tested on: cancer with abnormally high expression of the PAICS gene; assay: Anti-cancer and therapeutic effect, cancers with abnormally high PAICS expression
Description: as §1

## Oc1ncnc2[nH]ncc12 [allopurinol, Allopurinol]
[1]
  therapeutic effect: no significant therapeutic effect
Bel-7402
  anti-tumor activity: no anti-tumor activity
[2]
  Anti-cancer effect of allopurinol: Significant
Prostate adenocarcinoma
  Anti-cancer effect of allopurinol: Significant
Lung adenocarcinoma
  Anti-cancer effect of allopurinol: Significant
Stomach adenocarcinoma
  Anti-cancer effect of allopurinol: Significant
[3]
  Anti-cancer effect of allopurinol: Significant
[4]
  Anti-cancer effect of allopurinol: Significant
Glioblastoma multiforme
  Anti-cancer effect of allopurinol: Significant
[5]
  Anti-cancer effect of allopurinol: Significant
Cholangiocarcinoma
  Anti-cancer effect of allopurinol: Significant
Rectum adenocarcinoma
  Anti-cancer effect of allopurinol: Significant
[6]
  Anti-cancer effect of allopurinol: Significant
[7]
  Anti-cancer effect of allopurinol: Significant
Esophageal carcinoma
  Anti-cancer effect of allopurinol: Significant
[8]
  Anti-cancer effect of allopurinol: Significant
[9]
  Anti-cancer effect of allopurinol: Significant
Colon adenocarcinoma
  Anti-cancer effect of allopurinol: Significant
SMMC-7221
  anti-tumor activity: no anti-tumor activity
[10]
  anti-cancer and therapeutic effects: significant anti-cancer and therapeutic effects
